Experimental data as given in patent US20220054425A1, “NANOCAPSULES COATED WITH CHITOSAN AND USE THEREOF” (SKINMED CO., LTD., priority 2018, published 2022).

Test: Skin permeability, Franz diffusion cell system
Assay type: in vitro ADME
Conditions: human cadaver skin, fluorescence, up to 24 hours
Source text: In a Franz diffusion cell system, a formulation including a drug is applied to a donor chamber while a receptor chamber is filled with physiological saline such as PBS (phosphate buffered saline), with a permeable layer, such as a permeable membrane, animal skin or cell culture skin, fixed between the donor chamber and the receptor chamber. Skin permeability can be determined by measuring the amount of the drug diffusing from the donor chamber to the receptor chamber.
In a Franz diffusion cell system, 5 ml of PBS (pH 7.4 containing 0.05% polysorbate 80) was added to the receptor chamber, a human cadaver skin with a size of 1.5×1.5 cm was fixed between the receptor chamber and the donor chamber, and each sample was placed in a donor chamber. The conditions of 37° C. and 600 rpm were set in the receptor chamber and 500 μl of the sample was recovered each time at sample times of 0.5, 1, 2, 4, 8, 12, 18, and 24 hours. The drug passing through the skin was quantitated according to time by HPLC. The result is depicted in FIG. 18.
To a donor chamber, chitosan-coated nanocapsules containing 2 wt % of Nile red (Nile red@ChiNC) were added in an amount of 2 mg/ml. As a control, Nile red alone, or Nile red-containing nanocapsules without a chitosan coating (Nile red@PluNC) were employed. […] Fluorescence in the samples taken at the predetermined times was measured. […]

skin permeability of Nile red: almost did not penetrate into the skin
SMILES: CCN(CC)c1ccc2nc3c4ccccc4c(=O)cc-3oc2c1 [Nile red]
